Here are results for three molecules from patent US6316495A, “Method for inhibition of retroviral replication” (priority 1999, dated 2001).

What all share (type): biochemical
The test system of assay [1] is HIV reverse transcriptase. As to the kind of experiment: HIV reverse transcriptase activity with ADPRT, poly-ADP-ribosylated ADPRT and drug inhibitors of poly-ADP-ribosylation (FIG. 3, Example 4). The note with it: for HIV reverse transcriptase activity: absence of ADPRT. As to the method: Reverse transcriptase activity assay conditions were as described in Example 1. NAD was added in a concentration of 62.5 μM and ADPRT in a concentration of 0.5 μM. Inhibitors 6-amino-1,2-benzopyrone (6-ABP) or 5-iodo-6-amino-1,2-benzopyrone (5-I-6-ABP) were added in concentrations 1000 μM, and 400 μM, respectively.
(§1) The medium (coctail) comprises 50 mM Tris-HCl pH 8.0; 60 mM KCl; 7 mM MgCl2; 40 mM DTT (dithiothreitol) 2 mM GSH (glutathione); 60 μg/ml whole histones/ml (Grade A, Sigma, St. Louis); poly (rA) oligo (dT)12-18 (Pharmacia, Piscataway, N. J.) and 50 μM M(0.1 μCalif.) [alfa ^32 P]TTP (ICN, Irvine, CA.) (Reverse transcriptase uses poly(rA) as template and the annealed oligo(dT) as primer for incorporating the labeled TTP).
(§2) The reverse polymerization was started by adding 0.02 μg of recombinant reverse transcriptase protein (ERC BioServices, Rockville, Md.) into 50 μl of coctail. The reaction mixture incubated at 25° C. for 5 minutes.
(§3) The reaction was stopped by adding 2 ml of ice cold 20% trichloroacetic acid and the precipitated nucleic acids were filtered onto glass fiber filters, dried with ethanol and their incorporated radioactivity counted in a liquid scintillation counter.
Using generally the reverse transcriptase procedure described in Example 1, three groups of samples were prepared. The first group contained the coctail described in the Example 1 containing poly (rA).cndot.oligo (dT)12-18 as a template and drugs 6-ABP or 5-I-6-ABP in concentration 1,000 μM and 400 μM, respectively, without the presence of ADPRT.
The second group contained the same ingredients as group 1 but ADPRT at a concentration to 0.5 μM was added to all samples.
The third group contained the same ingredients as group 2 but NAD in a concentration of 62.5 μM was added.

Assay [2] concerns Human recombinant HIV reverse transcriptase. Briefly: Effect of unmodified and ADP-ribosylated ADPRT on HIV reverse transcriptase activity (FIG. 1, Example 2). The protocol: The basic assay system for measurement of reverse transcriptase activity is described in Example 1. Human recombinant HIV reverse transcriptase used in the assay was obtained from HIV, ERC Bioservices. ADPRT used in this experiment is highly purified ADPRT protein prepared according to Anal. Biochem., 167:160 (1987). ADPRT was added to the reverse transcriptase assay system at various concentrations ranging from 0.01 to 1 μM. When the effect of […], pre-ADP-ribosylated ADPRT was assayed, the ADPRT enzyme was incubated with NAD and cofactors according to FEBS Letters, 212:73 (1987). The poly ADP-ribosylated ADPRT was isolated by centricon ultrafiltration and added in various concentration as shown in FIG. 1.
as §1, §2, §3
A small amount (300 μg) of ADPRT (0.5 μM) of final concentration was incubated with 100 mM NAD in 3 ml of 25 mM Tris-HCl (pH 7.4), 0.3% Tween 20 at 25° C. for three hours to render the protein auto-poly (ADP-ribosyl)ated, then concentrated to 3 mg/ml. Using generally the reverse transcriptase assay conditions as described in Example 1, the effect of automodified and unmodified ADPRT was monitored.

In assay [3] the test system is recombinant human HIV reverse transcriptase. As to the kind of experiment: Activation of HIV reverse transcriptase by auto-(ADP-ribosylated) ADPRT (FIG. 2, Example 3). The following applies: 0.5 μM ADPRT, no NAD. As to the method:
Such abrogation and its time dependency is further illustrated in FIG. 2 wherein the activation of HIV reverse transcriptase by auto-ADP-ribosylated ADPRT is expressed as % of reverse transcriptase activity. The experimental conditions are as described in Example 3. […] Samples in columns 3-5 were incubated for time periods as indicated.
The medium (coctail) comprises 50 mM Tris-HCl pH 8.0; 60 mM KCl; 7 mM MgCl2; 40 mM DTT (dithiothreitol) 2 mM GSH (glutathione); 60 μg/ml whole histones/ml (Grade A, Sigma, St. Louis); poly (rA) oligo (dT)12-18 (Pharmacia, Piscataway, N. J.) and 50 μM M(0.1 μCalif.) [alfa ^32 P]TTP (ICN, Irvine, CA.) (Reverse transcriptase uses poly(rA) as template and the annealed oligo(dT) as primer for incorporating the labeled TTP). […]
The reaction was stopped by adding 2 ml of ice cold 20% trichloroacetic acid and the precipitated nucleic acids were filtered onto glass fiber filters, dried with ethanol and their incorporated radioactivity counted in a liquid scintillation counter. […]
The mixture was incubated at 25° C. for 5, 10 and 25 minutes, then the recombinant reverse transcriptase was added and the mixture was incubated for additional 5 minutes. The reaction was stopped, as described above, the precipitate was filtered and radioactivity counted.

`Nc1ccc2oc(=O)ccc2c1I` [5-I-6-ABP, 5-iodo-6-amino-1,2-benzopyrone]: the “activity of reverse transcriptase” value in assay [1] (0.5 μM ADPRT + 62.5 μM NAD + 5-I-6-ABP 400 μM (column 9)) was “the same as the one seen in column 6”; in assay [1] (0.5 μM ADPRT + 5-I-6-ABP 400 μM) it was “only very slightly”; in assay [1] (0.5 μM ADPRT + 5-I-6-ABP 400 μM, listed as 5-I-ABP, 400 µM) it was “about 50%”. In addition, the “HIV reverse transcriptase activity” value in assay [1] (5-I-6-ABP 400 μM) is recorded as “did not affect”.
Take `Nc1ccc2oc(=O)ccc2c1` [6-ABP, 6-amino-1,2-benzopyrone]: the reverse transcriptase activity result in assay [1] (0.5 μM ADPRT + 62.5 μM NAD + 6-ABP 1000 μM) is “about 60%”. Further, the “activity of reverse transcriptase” value is recorded as “only very slightly” in assay [1] (0.5 μM ADPRT + 6-ABP 1000 μM) and “about 50%” in assay [1] (0.5 μM ADPRT + 6-ABP 1000 μM, 1000 µM). Besides, in assay [1] (6-ABP 1000 μM), the “HIV reverse transcriptase activity” value is reported as “did not affect”.
As to “adenosine diphosphoribosyl transferase [ADPRT]”, in assay [2] (0.05 μM pure ADPRT), the “inhibition of reverse transcriptase activity” value stood at 10%. Moreover, in assay [2] (0.01 to 1 μM added to RT assay), the “effect on reverse transcription (FIG. 1 summary)” value is “inhibits RT in a concentration-dependent manner”. Also, in assay [2] (around 1-1.3 μM ADPRT), the “inhibition of reverse transcriptase” value was 75-80%. Besides, the “activity of reverse transcriptase” value in assay [2] (around 1-1.3 μM ADPRT, control 100%) is “about 20%”; in assay [1] (0.5 μM pure ADPRT only (column 4)), “about 50%”. Also, the “depression/inhibition of reverse transcriptase activity” value in assay [3] is given as “about 50%”.
